How the values were obtained:
[1] = test system: HepG2, Caco-2, MRC5 and HUVEC cells; assay: MTT assay, comparison of cytotoxic effects at 1 μM on four cell types; type: cell-based, human; settings: 24 h, Caco-2, HepG2, MRC5, HUVEC
Excerpt: We focused attention on 12β,6′-dihydroxycalotropin (1), 16α-hydroxycalotropin (2), 12β-hydroxycalactin (3), calotropin (4), and calactin (5), among those described by Hosseini et al., and tested their cytotoxic activity by a 3-(4,5-dime-thylthiazol-2-yl)-2,5-diphenylte-tetrazolium bromide (MTT) assay on two cancer cell lines (HepG2 and Caco-2), not previously employed, on an immortalised nontumoral cell line (MRC5) and normal primary cells (HUVEC).
Figure 2 Comparison of cytotoxic effects of P. tomentosa compounds on cancer cell lines (Caco-2 and HepG2), on an immortalised cell line (MRC5) and normal cells (HUVEC). Cells were treated for 24 h with 1 μM of each compound. Residual viability was measured by the MTT assay. Values are the means ± standard error (SE) of three independent experiments performed in triplicate. Statistical analysis was performed using the Student’s t-test. * p < 0.05 and ** p < 0.01 vs. cells treated with the vehicle (DMSO).
(§1) The human liver hepatocellular carcinoma cell line, HepG2, and the human adenocarcinoma of colon cell line, Caco-2, were cultured in Eagle’s Minimum Essential medium supplemented with 1% (v/v) non-essential amino acids, 0.2 mM L-glutamine, 50 units/mL penicillin, 50 μg/mL streptomycin and 10% (v/v) or 20% (v/v) fetal bovine serum (Sigma Aldrich, Milan, Italy) for HepG2 or Caco-2, respectively. The human embryonal lung fibroblast cell line, MRC5, was cultured in Dulbecco’s Modified Eagle medium (Sigma Aldrich, Milan, Italy) supplemented with 10% (v/v) fetal bovine serum, 0.2 mM L-glutamine, 50 units/mL penicillin and 50 μg/mL streptomycin. HUVEC cells were cultured in endothelial growth medium-2, supplemented with fetal bovine serum (2%), VEGF (0.1%), rH FGF-B (0.4%), rH EGF (0.1%), GA-1000 (0.1%), hydrocortisone (0.04%), R3-IGF-1 (0.1%), heparin (0.1%) and ascorbic acid (0.1%). Cells were maintained at 37 °C in a 5% CO2, 95% air-humidified atmosphere and passaged twice a week. Cell lines were obtained from Interlab Cell Line Collection, Istituto Nazionale per la Ricerca sul Cancro, Genoa, Italy. HUVEC were obtained from Lonza (Milan, Italy).
(§2) An MTT assay was used to analyse cell viability. Cells were seeded in 96 wells at the density of 2 × 10^4/cm^2 and, after 24 h, they were treated with P. tomentosa compounds or with the vehicle (DMSO). After a further 24 h of treatment, 0.5 mg/mL of MTT was added to the cell medium and incubated for 1.5 h at 37 °C. The resulting formazan crystals were dissolved in 100 μL of DMSO and absorbances were measured at 595 nm and 655 nm. The background signals at 655 nm were subtracted from 595 nm signals, and data were expressed as a percent of cell viability. The concentration of each compound that is required for 50% inhibition in vitro (IC50) was calculated as described in Husseini et al.. IC50 values were obtained for Caco-2, HepG2 and MRC5 cells by performing MTT assays with concentrations ranging from 0.01 μg/mL to 5 μg/mL.

HepG2 cells [2] = assay: BrdU incorporation (proliferation) assay; type: cell-based, human; settings: HepG2, 1 μM, 24 h
Method: Cell proliferation was analysed by a BrdU (Roche Diagnostics SpA, Monza, Italy) incorporation assay, as previously described. Briefly, HepG2 cells, seeded at adensity of 3 × 10^3/cm^2 on round glass cover slips, were treated for 24 h with P. tomentosa compounds at 1 μM. Then, BrdU was added to cell medium (final concentration, 100 μM) for 1 h. Cells were fixed (in 3% paraformaldehyde, 10 min), permeabilised (in 0.2% Triton X-100, 5 min) and treated with HCl 1.5 N (5 min). Finally, cover slips were incubated with a monoclonal antibody against BrdU (Sigma-Aldrich, Milan, Italy), 1:100, and with a TRITC-conjugated secondary antibody, 1:100. After staining with Hoechst, cover slips were mounted with Mowiol (Sigma, Milan, Italy). […] Images were acquired with Axiocam MRc5 and processed with ImageJ Launcher. The number of cells into S-phase was expressed as the ratio between the number of cells incorporating BrdU and the total number of cells.

HepG2 cells [3] = assay: MTT cell viability assay, IC50 in HepG2 cells; type: cell-based; settings: Homo sapiens, 24 h, SE less than 10% of value
Method: as §1, §2

MRC5 cells = assay: MTT cell viability assay, IC50 in MRC5 cells; type: cell-based; settings: Homo sapiens, 24 h, SE less than 10% of value
Method: as §1, §2

HepG2 cells [4] = assay: Scratch-wound-healing assay; type: cell-based, human; settings: HepG2, 1 μM, 24, 48 and 72 h
Method: Cells were seeded at a density of 5 × 10^4 cells/well in 24-well plates and allowed to grow for 72 h, reaching confluence. Mitomycin C (10 μg/mL) was added to inhibit proliferation, and then a sterile 2–10 μL pipette tip was used to perform a vertical scratch in the monolayer of each well. Detached cells were removed by washing with phosphate-buffered saline. Then, 300 μL of fresh medium containing P. tomentosa compounds (1 μM) or vehicle was added to each well and incubated for 72 h. Images of migrating cells were taken at 0, 24, 48 and 72 h, by using an Olympus CKX41 fluorescent microscope (Olympus Italia srl, Segrate, Italy) and elaborated by the ImageJ software. For each scratch, wound width was calculated as the average distance between the edges in four different sites. Then, reductions in wound wights at 24, 48 and 72 h were expressed as % of the width at time zero.

HepG2 cells [5] = assay: Transwell migration assay; type: cell-based, human; settings: HepG2, 1 μM, 18 h
Method: Transwell filters (coated with collagen) in serum-free media containing 0.1% of BSA, with a PET membrane with 8 μm pores (BD Biosciences, Milan, Italy), were rehydrated for 2 h at 37 °C. HepG2 were seeded in the upper chambers at a density of 75 × 10^3 cells in MEM with 0.1% BSA and treated with or without 1 µM of Pergularia compounds. MEM−0.1%BSA, supplemented with 10% FBS, was added to the lower chamber as chemoattractant. Control wells without 10% FBS were included to assess random migration. After incubation at 37 °C in 5% CO2 for 18 h, the migrated cells were fixed with 4% paraformaldehyde for 5 min, permeabilised with methanol for 20 min and stained with crystal violet 0.5% for 15 min at room temperature. The cells on the lower side of the filter were allowed to dry before counting. Eight separate bright-field images were randomly acquired of each filter using an Olympus CKX41 Image Analyzer. The cells in each image were counted and analysed compared to control-transfected cells.

HepG2 cells [6] = assay: TUNEL assay; type: cell-based, human; settings: HepG2, 1 μM, 24 h
Method: Microscopic evaluation of apoptosis was performed by a TUNEL assay, using a commercial kit (Fragment End Labelling (FragEL™), […]) DNA Fragmentation Detection Kit, Sigma-Aldrich, Milan, Italy) according to the manufacturer-provided protocol, with some modifications. Briefly, cells were seeded on glass cover slips placed in 24-well plates at a density of 3.5 × 10^3/cm^2 and, after 48 h, they were treated with 1 μΜ of each compound for a further 24 h. Cells were fixed in 3% paraformaldehyde for 10 min, permeabilised in 0.2% Triton X-100 for 5 min and treated with HCl 1.5 N for 8 min. Finally, cover slips were equilibrated in equilibration buffer (10 min) and incubated with label mix containing the TdT enzyme for 1 h at 37 °C, then mounted with mounting media. Microscope observations were performed by the AxioSkop 40 fluorescent microscope. Images were acquired with Axiocam MRc5 (Carl Zeiss MicroImaging, Inc., Jena, Germany).

Caco-2 cells = assay: MTT cell viability assay, IC50 in Caco-2 cells; type: cell-based; settings: Homo sapiens, 24 h, SE less than 10% of value
Method: as §1, §2

caspase-3 in HepG2 cells [7] = assay: Caspase-3 colorimetric activity assay; type: cell-based, human; settings: HepG2, 1 μM, 24 h
Method: To evaluate apoptosis, a caspase-3 colorimetric assay was performed. Briefly, HepG2 cell lines were seeded in plates of 60 mm diameter at a density of 3.5 × 10^4/cm^2 and, after 24 h, treated with P. tomentosa compounds (1 μM each) for 24 h. Then, cells were harvested in phosphate-buffered saline, collected by centrifugation and lysed in a buffer containing 50 mM HEPES, 0.1% CHAPS, 10 mM dithiothreitol, 100 mM NaCl, 1 mM EDTA and 10% sucrose. Proteins (30 μg) were incubated for 2 h at 37 °C in a reaction mixture containing the caspase-3 substrate (acetyl-Asp-Glu-Val-Asp, labelled with p-nitroanilide) (Sigma-aldrich, Milan, Italy) at a concentration of 0.2 mM. Finally, the release of free p-nitroanilide was monitored spectrophotometrically at 405 nm. Enzyme activity was expressed as percentage of absorption of treated cells versus vehicle-treated cells.

caspase-3 in HepG2 cells [8] = assay: Western blot of cleaved caspase-3; type: cell-based, human; settings: HepG2, 2 μM, 7 h, Western blot densitometry
Method: To analyse the protein levels of p53, caspase-3, GRP78, LC3 and p62, HepG2 cells were treated with P. tomentosa compounds (1 or 2 μM) or with DMSO for the indicated times; then, Western blot analyses were performed. Briefly, cells were lysed in RIPA buffer (20 mM Tris-HCl, pH 7.5, 150 mM NaCl, 1 mM EDTA, 1 mM dithiothreitol, 0.1% sodium dodecyl sulphate, 1% triton X-100, 1 mM orthovanadate, and a cocktail of inhibitors (Sigma-Aldrich, Milan, Italy)). After separation on a sodium dodecyl sulphate-polyacrylamide gel electrophoresis and transfer to a poly-vinylidene fluoride membrane (Euroclone, Milan, Italy), the following primary antibodies were used, at a dilution of 1:1000 in tris-buffered saline containing 1% non-fat dry milk, overnight at 4 °C: mouse anti-p53 antibody, mouse anti-MAP LC3 β antibody, mouse anti-p62 antibody (DBA, Milan, Italy), mouse anti-GRP78 antibody, and mouse anti-caspase 3 antibody (Thermo Fisher Scientific, Milan, Italy). For normalisation, a mouse anti-GAPDH antibody (Microtech, Naples, Italy) was used.

XBP1 in HepG2 cells = assay: XBP1 splicing detection; type: cell-based, human; settings: HepG2, 1 μM, 4 h
Method: To detect the unspliced and the spliced form of XBP1, we followed the protocol described by Martucciello et al.. After treatments for 4 h with 1 μM of each compound, or DMSO, or thapsigargin (1 μM), RNA was isolated and retro-transcripted. PCR analyses were performed with the following primers: 5′- […]-3′; 5′-[…]-3′. After 35 cycles (heating at 94 °C for 30 s, annealing at 58 °C for 45 s, and polymerisation at 72 °C for 60 s), amplified cDNA was visualised on 2.5% agarose gel, stained with an ethidium bromide solution.

| SMILES | relative cytotoxicity (residual viability, MTT) [1] | effect on BrdU incorporation / cell cycle progression (HepG2 cells [2]) | IC50 (HepG2 cells [3]) [nM] | IC50 (MRC5 cells) [nM] | effect on wound closure (HepG2 cells [4]) | effect on transwell migration (HepG2 cells [5]) | apoptotic nuclei (TUNEL) (HepG2 cells [6]) | IC50 (Caco-2 cells) [nM] | caspase-3 activity (caspase-3 in HepG2 cells [7]) | reduction of number of cells that incorporated BrdU compared to the vehicle (HepG2 cells [2]) | cleaved caspase-3 (caspase-3 activation) (caspase-3 in HepG2 cells [8]) | XBP1 splicing (XBP1 in HepG2 cells) |
| --- | --- | --- | --- | --- | --- | --- | --- | --- | --- | --- | --- | --- |
| C[C@@]12C(C3=CC(=O)OC3)CC[C@]1(O)C1CCC3C[C@H]4O[C@@H]5O[C@H](CO)C[C@H](O)[C@]5(O)O[C@@H]4C[C@]3(C=O)C1C[C@H]2O (stereo partly drawn) [Compound 1, 12β,6′-dihydroxycalotropin] | intermediate cytotoxicity | slightly (but not significantly) reduced BrdU incorporation | 2610 | 2210 | interfered with the wound closure after 48 and 72 h | reduce migration | less evident | 1540 |  |  |  |  |
| C[C@@H]1C[C@H](O)[C@]2(O)O[C@@H]3C[C@@]4(C=O)C(CCC5C4CC[C@]4(C)C(C6=CC(=O)OC6)[C@H](O)C[C@]54O)C[C@H]3O[C@@H]2O1 (stereo partly drawn) [Compound 2, 16α-hydroxycalotropin] | intermediate cytotoxicity | significantly affected cell cycle progression | 2340 | 2320 | interfered with the wound closure at 72 h only |  | less evident | 2430 |  |  |  |  |
| C[C@@H]1C[C@@H](O)[C@]2(O)O[C@@H]3C[C@@]4(C=O)C(CCC5C4C[C@@H](O)[C@]4(C)C(C6=CC(=O)OC6)CC[C@]54O)C[C@H]3O[C@@H]2O1 (stereo partly drawn) [Compound 3, 12β-hydroxycalactin] | less cytotoxic | slightly (but not significantly) reduced BrdU incorporation | 6280 | 5980 | had an effect at 48 h only | reduce migration | undetectable | 4510 | did not seem to affect enzyme activity |  |  |  |
| C[C@@H]1C[C@H](O)[C@]2(O)O[C@@H]3C[C@@]4(C=O)[C@@H](CC[C@@H]5[C@@H]4CC[C@]4(C)[C@@H](C6=CC(=O)OC6)CC[C@]54O)C[C@H]3O[C@@H]2O1 [Compound 4, calotropin] | most cytotoxic | significantly affected cell cycle progression | 830 | 424 | not affect cell migration, at any time |  | occurrence of apoptotic nuclei | 767 |  | about 40% | most active |  |
| C/C=C(/C)C(=O)O[C@H]1C(C)=C2[C@H]([C@@H]1OC(=O)CCCCCCC)[C@@](C)(OC(C)=O)C[C@H](OC(=O)CCC)[C@@]1(O)[C@H]2OC(=O)[C@@]1(C)O [thapsigargin] |  |  |  |  |  |  |  |  |  |  |  | appearance of the spliced form |
